{"source": "patent US8445531B2", "about": "“Rodenticidal compounds, composition including same and use thereof for controlling harmful rodents” (priority 2010, dated 2013)", "key": {"[1]": {"experiment": "Liver residue follow-up (remanence) in rats", "format": "in vivo", "conditions": "rat liver", "procedure": "(§1) 3 lots of 5 rats were used for the compound of formula (II), and 2 lots of 4 rats were used for bromadiolone.\n(§2) 3 doses of 10 mg/kg of rat were administered intraperitoneally in succession at T0, T24h and T48h.\n1 lot of rats was used to carry out a metering of residue of the compound of formula (II) in the liver at T72h, T96h and T120h.\n(§3) Doses of 2 mg/kg/day were administered for 4 days.\nA metering of bromadiolone residue in the liver at T120h was carried out."}, "rats [2]": {"tested_on": "rats", "experiment": "Mortality follow-up in rats after repeated administration", "format": "in vivo, rat", "from_the_text": "The rodenticidal effectiveness and the remanence of the compounds according to the invention have been tested in comparison with the rodenticidal product of reference bromadiolone, with bromadiolone being the least remanent of all of the second-generation anticoagulants currently used in combating rodents.\nFor this test, the compound of formula (II) that is obtained by implementing the process disclosed above is used.\nas §1, §2\n1 lot of rats was used to follow the mortality rate brought about by the 3 administrations of the compound of formula (II) according to the invention.\nas §3\n1 lot of rats was used to determine the mortality rate brought about at T120h."}, "rats [3]": {"tested_on": "rats", "experiment": "Coagulation time follow-up in rats", "format": "in vivo, rat", "procedure": "as §1, §2\n1 lot of rats was used to follow the coagulation time between 24 hours and 120 hours after the first injection. Actually, the coagulation time is the first parameter that varies and tends toward infinity under the action of an anticoagulant.\nas §3\n1 lot of rats was used to follow the coagulation time between 24 hours and 120 hours after the first injection."}, "[4]": {"conditions": "3 doses of 10 mg/kg intraperitoneally at T0, T24h, T48h, T24 h"}, "[5]": {"conditions": "3 doses of 10 mg/kg intraperitoneally at T0, T24h, T48h, T48 h"}, "[6]": {"conditions": "3 doses of 10 mg/kg intraperitoneally at T0, T24h, T48h, T72 h"}}, "data": [{"smiles": "O=c1oc2ccccc2c(O)c1C(CC(O)c1ccc(-c2ccc(Br)cc2)cc1)c1ccccc1", "note": "(stereo not drawn) [Bromadiolone, bromadiolone]", "values": [{"measurement": "Liver Residue Follow-Up", "setting": "[1]; 2 mg/kg/day for 4 days, T120 h", "value": 4.2, "unit": "µg/g"}, {"measurement": "liver residue of bromadiolone relative to compound of formula (II)", "setting": "[1]; 120 hours after the first injection", "value": 11, "unit": "times"}, {"measurement": "Total Mortality", "setting": "rats [2]; 2 mg/kg/day for 4 days, 2 mg/kg/day", "value": 100, "unit": "%"}, {"measurement": "Mortality Follow-Up", "setting": "rats [2]; 2 mg/kg/day for 4 days, T96 h", "value": 2, "unit": "Deaths"}, {"measurement": "Mortality Follow-Up", "setting": "rats [2]; 2 mg/kg/day for 4 days, T120 h", "value": 2, "unit": "Deaths"}, {"measurement": "Total Mortality", "setting": "rats [2]; 2 mg/kg/day for 4 days, listed as reference rodenticidal product, 2 mg/kg/day", "value": 100, "unit": "%"}, {"measurement": "Coagulation Time Follow-Up", "setting": "rats [3]; 2 mg/kg/day for 4 days, T0", "value": "Infinite"}, {"measurement": "Coagulation Time Follow-Up", "setting": "rats [3]; 2 mg/kg/day for 4 days, T24 h", "value": "Infinite"}, {"measurement": "Coagulation Time Follow-Up", "setting": "rats [3]; 2 mg/kg/day for 4 days, T48 h", "value": "Infinite"}, {"measurement": "Coagulation Time Follow-Up", "setting": "rats [3]; 2 mg/kg/day for 4 days, T72 h", "value": "Infinite"}, {"measurement": "Coagulation Time Follow-Up", "setting": "rats [3]; 2 mg/kg/day for 4 days, T96 h", "value": "Infinite"}, {"measurement": "Coagulation Time Follow-Up", "setting": "rats [3]; 2 mg/kg/day for 4 days, T120 h, 2 mg/kg/day", "value": "Infinite"}, {"measurement": "Coagulation Time Follow-Up", "setting": "rats [3]; 2 mg/kg/day for 4 days, T120 h, listed as bromadiolone, 2 mg/kg/day", "value": "infinite"}]}, {"smiles": "C/C(=C\\Cc1c(O)c2ccccc2oc1=O)CCCC(C)CCCC(C)CCCC(C)C", "note": "(stereo not drawn) [Compound According to the Invention, 3-phytyl-4-hydroxy-coumarin]", "values": [{"measurement": "concentration at 72 h", "setting": "[1]; ip, 3 doses of 10 mg/kg intraperitoneally at T0, T24h, T48h, T72 h", "value": 650, "unit": "ng/g"}, {"measurement": "concentration at 96 h", "setting": "[1]; ip, 3 doses of 10 mg/kg intraperitoneally at T0, T24h, T48h, T96 h", "value": 510, "unit": "ng/g"}, {"measurement": "concentration at 120 h", "setting": "[1]; ip, 3 doses of 10 mg/kg intraperitoneally at T0, T24h, T48h, T120 h", "value": 370, "unit": "ng/g"}, {"measurement": "Total Mortality", "setting": "rats [2]; 3 doses of 10 mg/kg intraperitoneally at T0, T24h, T48h, 10 mg/kg", "value": 100, "unit": "%"}, {"measurement": "Mortality Follow-Up", "setting": "rats [2]; [4]", "value": 2, "unit": "Deaths"}, {"measurement": "Mortality Follow-Up", "setting": "rats [2]; [5]", "value": 2, "unit": "Deaths"}, {"measurement": "Mortality Follow-Up", "setting": "rats [2]; [6]", "value": 1, "unit": "Death"}, {"measurement": "Total Mortality", "setting": "rats [2]; 3 doses of 10 mg/kg intraperitoneally at T0, T24h, T48h, listed as compounds according to the invention, 10 mg/kg", "value": 100, "unit": "%"}, {"measurement": "Coagulation Time Follow-Up", "setting": "rats [3]; 3 doses of 10 mg/kg intraperitoneally at T0, T24h, T48h, T0", "value": "Infinite"}, {"measurement": "Coagulation Time Follow-Up", "setting": "rats [3]; [4]", "value": "Infinite"}, {"measurement": "Coagulation Time Follow-Up", "setting": "rats [3]; [5]", "value": "Infinite"}, {"measurement": "Coagulation Time Follow-Up", "setting": "rats [3]; [6]", "value": "Infinite"}, {"measurement": "Coagulation Time Follow-Up", "setting": "rats [3]; 3 doses of 10 mg/kg intraperitoneally at T0, T24h, T48h, T96 h", "value": "Infinite"}, {"measurement": "Coagulation Time Follow-Up", "setting": "rats [3]; 3 doses of 10 mg/kg intraperitoneally at T0, T24h, T48h, T120 h", "value": 120, "unit": "s"}]}]}
